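48-hour exposure; five concentrations; linearly interpolated endpoints. Here, GI50 denotes the concentration required for 50% inhibition of growth. TGI: total growth inhibition.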
Tests used:
Assay in all cases: inhibition of tumour cell growth, NCI panel, 48 h
[1] = tested on: 786-0 renal
[2] = tested on: A498 renal
[3] = tested on: A549 NSCLC
[4] = tested on: ACHN renal
[5] = tested on: CAKI-1 renal
[6] = tested on: CCRF-CEM leukemia
[7] = tested on: COLO 205 colon
[8] = tested on: DU-145 prostate
[9] = tested on: EKVX NSCLC
[10] = tested on: HCC-2998 colon
[11] = tested on: HCT-116 colon
[12] = tested on: HCT-15 colon
[13] = tested on: HL-60(TB) leukemia
[14] = tested on: HOP-62 NSCLC
[15] = tested on: HOP-92 NSCLC
[16] = tested on: HS 578T breast
[17] = tested on: HT29 colon
[18] = tested on: IGROV1 ovarian
[19] = tested on: K-562 leukemia
[20] = tested on: KM12 colon
[21] = tested on: LOX IMVI melanoma
[22] = tested on: M14 melanoma
[23] = tested on: MALME-3M melanoma
[24] = tested on: MCF7 breast
[25] = tested on: MDA-MB-231 breast
[26] = tested on: MDA-MB-435
[27] = tested on: MOLT-4 leukemia
[28] = tested on: NCI-H226 lung
[29] = tested on: NCI-H23 lung
[30] = tested on: NCI-H460 lung
[31] = tested on: NCI-H522 lung
[32] = tested on: NCI/ADR-RES ovarian
[33] = tested on: OVCAR-3 ovarian
[34] = tested on: OVCAR-4 ovarian
[35] = tested on: OVCAR-5 ovarian
[36] = tested on: OVCAR-8 ovarian
[37] = tested on: PC-3 prostate
[38] = tested on: RPMI-8226 leukemia
[39] = tested on: RXF 393 renal
[40] = tested on: SF-268 CNS
[41] = tested on: SF-295 CNS
[42] = tested on: SF-539 CNS
[43] = tested on: SK-MEL-2 melanoma
[44] = tested on: SK-MEL-28 melanoma
[45] = tested on: SK-MEL-5 melanoma
[46] = tested on: SK-OV-3 ovarian
[47] = tested on: SN12C renal
[48] = tested on: SNB-19 CNS
[49] = tested on: SNB-75 CNS
[50] = tested on: SR leukemia
[51] = tested on: SW-620 colon
[52] = tested on: T-47D breast
[53] = tested on: TK-10 renal
[54] = tested on: U251 CNS
[55] = tested on: UACC-257 melanoma
[56] = tested on: UACC-62 melanoma
[57] = tested on: UO-31 renal
[58] = tested on: BT-549 breast

Work on `Nc1nc(SCC#CCCl)c2[nH]cnc2n1` yielded a GI50 [1] of 4.3 µM, a TGI [1] of 14.9 µM and a GI50 [2] of 1.64 µM. The TGI [2] was 6.87 µM, the GI50 [3] was 7.04 µM and the TGI [3] was 19.8 µM. For the same compound, the GI50 [4] was 3.7 µM, the TGI [4] was 15 µM and the GI50 [5] was 2.83 µM. For the same compound, the TGI [5] was 10.6 µM, the GI50 [6] was 3.39 µM and the TGI [6] was 19.3 µM. It also gave a GI50 [7] of 4.4 µM, a TGI [7] of 14.9 µM and a GI50 [8] of 4.39 µM. The TGI [8] was 15.9 µM, the GI50 [9] was 3.22 µM and the TGI [9] was 15.4 µM. The GI50 [10] was 5.85 µM, the TGI [10] was 18.9 µM and the GI50 [11] was 3.86 µM. It also gave a TGI [11] of 15.2 µM, a GI50 [12] of 3.52 µM and a TGI [12] of 17.7 µM. The GI50 [13] was 2.08 µM, the TGI [13] was 6.61 µM and the GI50 [14] was 9.94 µM. It also gave a TGI [14] of 24.3 µM, a GI50 [15] of 2.16 µM and a TGI [15] of 10.4 µM. The GI50 [16] was 3.89 µM, the TGI [16] was 56.6 µM and the GI50 [17] was 4.92 µM. The TGI [17] was 18.1 µM, the GI50 [18] was 4.58 µM and the TGI [18] was 23 µM. It also gave a GI50 [19] of 4.5 µM, a TGI [19] of 40.5 µM and a GI50 [20] of 6.14 µM. It also gave a TGI [20] of 18.6 µM, a GI50 [21] of 2.97 µM and a TGI [21] of 11.8 µM. The GI50 [22] was 6.58 µM, the TGI [22] was 20.9 µM and the GI50 [23] was 4.81 µM. For the same compound, the TGI [23] was 24 µM, the GI50 [24] was 4.12 µM and the TGI [24] was 16.3 µM. For the same compound, the GI50 [25] was 6.26 µM, the TGI [25] was 21.4 µM and the GI50 [26] was 3.81 µM. It also gave a TGI [26] of 18.6 µM, a GI50 [27] of 4.11 µM and a TGI [27] of 30.2 µM. The GI50 [28] was 8.02 µM, the TGI [28] was 26.7 µM and the GI50 [29] was 4.46 µM. The TGI [29] was 20.1 µM, the GI50 [30] was 3.62 µM and the TGI [30] was 16.7 µM. For the same compound, the GI50 [31] was 1.47 µM, the TGI [31] was 2.95 µM and the GI50 [32] was 6.16 µM. The TGI [32] was 30.4 µM, the GI50 [33] was 3.27 µM and the TGI [33] was 10.9 µM. For the same compound, the GI50 [34] was 4.32 µM, the TGI [34] was 67.4 µM and the GI50 [35] was 4.58 µM. It also gave a TGI [35] of 17.7 µM, a GI50 [36] of 11.6 µM and a TGI [36] of 33.1 µM. It also gave a GI50 [37] of 14.6 µM, a TGI [37] of 75.8 µM and a GI50 [38] of 6.86 µM. It also gave a TGI [38] of 48.8 µM, a GI50 [39] of 3.05 µM and a TGI [39] of 14.9 µM. For the same compound, the GI50 [40] was 3.93 µM, the TGI [40] was 18.6 µM and the GI50 [41] was 3.65 µM. For the same compound, the TGI [41] was 17.1 µM, the GI50 [42] was 3.61 µM and the TGI [42] was 15.4 µM. The GI50 [43] was 4.92 µM, the TGI [43] was 23.3 µM and the GI50 [44] was 11.7 µM. It also gave a TGI [44] of 27.2 µM, a GI50 [45] of 3.11 µM and a TGI [45] of 12.6 µM. The GI50 [46] was 7.56 µM, the TGI [46] was 27.6 µM and the GI50 [47] was 4.75 µM. For the same compound, the TGI [47] was 18 µM, the GI50 [48] was 10.5 µM and the TGI [48] was 23.2 µM. It also gave a GI50 [49] of 4.23 µM, a TGI [49] of 17.5 µM and a GI50 [50] of 3.15 µM. For the same compound, the TGI [50] was 18.9 µM, the GI50 [51] was 4.1 µM and the TGI [51] was 17.5 µM. For the same compound, the GI50 [52] was 5.26 µM, the TGI [52] was 21.1 µM and the GI50 [53] was 1.87 µM. It also gave a TGI [53] of 11.1 µM, a GI50 [54] of 2.97 µM and a TGI [54] of 7.79 µM. The GI50 [55] was 7.12 µM, the TGI [55] was 22.5 µM and the GI50 [56] was 5.46 µM. The TGI [56] was 18.1 µM, the GI50 [57] was 2.39 µM and the TGI [57] was 11.5 µM.

Compound `O=C(O)CCCCCNCc1cc2cc3c(cc2c2cc(OCc4ccccc4)ccc12)OCO3` has a GI50 [1] of 1.68 µM, a TGI [1] of 3.25 µM and a GI50 [2] of 3.17 µM. It also gave a TGI [2] of 13.2 µM, a GI50 [3] of 1.55 µM and a TGI [3] of 3.17 µM. It also gave a GI50 [4] of 3.48 µM, a TGI [4] of 13.2 µM and a GI50 [58] of 6.68 µM. It also gave a TGI [58] of 24.1 µM, a GI50 [5] of 3.17 µM and a TGI [5] of 12 µM. For the same compound, the GI50 [8] was 2.37 µM, the TGI [8] was 5.47 µM and the GI50 [9] was 4.01 µM. It also gave a TGI [9] of 17.9 µM, a GI50 [10] of 1.71 µM and a TGI [10] of 3.37 µM. The GI50 [11] was 1.58 µM, the TGI [11] was 3.48 µM and the GI50 [12] was 2.03 µM. It also gave a TGI [12] of 5.88 µM, a GI50 [13] of 2.32 µM and a TGI [13] of 6.85 µM. For the same compound, the GI50 [14] was 2 µM, the TGI [14] was 5.25 µM and the GI50 [15] was 1.38 µM. For the same compound, the TGI [15] was 2.98 µM, the GI50 [17] was 1.73 µM and the TGI [17] was 3.53 µM. For the same compound, the GI50 [18] was 2.96 µM, the TGI [18] was 10.1 µM and the GI50 [20] was 1.63 µM. The TGI [20] was 3.19 µM, the GI50 [21] was 1.62 µM and the TGI [21] was 3.1 µM. It also gave a GI50 [22] of 1.9 µM, a TGI [22] of 3.51 µM and a GI50 [23] of 1.88 µM. The TGI [23] was 3.57 µM, the GI50 [24] was 1.68 µM and the TGI [24] was 3.21 µM. For the same compound, the GI50 [25] was 1.88 µM, the TGI [25] was 3.88 µM and the GI50 [26] was 1.78 µM. It also gave a TGI [26] of 3.3 µM, a GI50 [27] of 2.23 µM and a TGI [27] of 24.2 µM. For the same compound, the GI50 [28] was 4.37 µM, the TGI [28] was 21.9 µM and the GI50 [30] was 1.7 µM. It also gave a TGI [30] of 3.33 µM, a GI50 [31] of 1.76 µM and a TGI [31] of 3.45 µM. It also gave a GI50 [32] of 2.88 µM, a TGI [32] of 11.1 µM and a GI50 [33] of 2.11 µM. The TGI [33] was 5.06 µM, the GI50 [34] was 3.26 µM and the TGI [34] was 12.6 µM. The GI50 [35] was 2.33 µM, the TGI [35] was 5.23 µM and the GI50 [36] was 1.61 µM. The TGI [36] was 3.21 µM, the GI50 [41] was 1.84 µM and the TGI [41] was 3.61 µM. It also gave a GI50 [42] of 1.9 µM, a TGI [42] of 3.62 µM and a GI50 [43] of 2.22 µM. The TGI [43] was 4.6 µM, the GI50 [44] was 1.78 µM and the TGI [44] was 3.33 µM. The GI50 [45] was 1.65 µM, the TGI [45] was 3.3 µM and the GI50 [46] was 5.11 µM. It also gave a TGI [46] of 19.9 µM, a GI50 [47] of 5.42 µM and a TGI [47] of 19.8 µM. It also gave a GI50 [48] of 4.05 µM, a TGI [48] of 20.7 µM and a GI50 [49] of 2.96 µM. For the same compound, the TGI [49] was 8.81 µM, the GI50 [50] was 1.7 µM and the TGI [50] was 5.3 µM. The GI50 [51] was 1.5 µM, the TGI [51] was 3.1 µM and the GI50 [52] was 2.06 µM. The TGI [52] was 5.04 µM, the GI50 [53] was 2.63 µM and the TGI [53] was 5.99 µM. The GI50 [54] was 1.73 µM, the TGI [54] was 3.28 µM and the GI50 [55] was 3.38 µM. For the same compound, the TGI [55] was 10.9 µM, the GI50 [56] was 1.8 µM and the TGI [56] was 3.44 µM. It also gave a GI50 [57] of 4.01 µM and a TGI [57] of 13.9 µM.

Reference: PubChem BioAssay (NCI)
